Patent US8541235B2, “Modified reconstituted basement membrane composition for assay system” (Corning Incorporated, priority 2003, dated 2013)
Read-outs that look alike come from different tables or passages of the source.

Tests used:
HUVEC tube formation [1] = experiment: Endothelial cell tube formation assay, inhibitor studies on modified matrix (tube formation induced by bFGF or S1P); assay type: cell-based, human; conditions: for Effect on S1P induced HUVEC tube formation: S1P 1 μM; for IC50: Homo sapiens, HUVEC
Protocol: (§1) With reference to FIG. 1, angiogenesis stimulators can be evaluated for their ability to enhance HUVEC tube formation using the compositions and cell culturing systems of the present invention. […] The bottom surface of the wells are shown as coated with the modified matrix composition of the present invention. On day 1, a potential angiogenesis stimulator is added to the coated surface, along with endothelial cells in cell medium. […] In inhibitor studies, the potential inhibitor is included in a well, in addition to at least one known stimulator and the endothelial cells in cell medium. After an appropriate incubation period, typically 24 hours at 37° C./5% CO2 (day 2), images of the wells are acquired, and tube length is quantified as a measure of cell tube formation.
Known stimulators were chosen to evaluate the performance of an inventive basement membrane composition vs. a prior basement membrane composition. The chosen stimulators were bFGF and spinosine-1-phosphate (S1P). Coated plates prepared as described above in Example 2 were thawed at about 4° C. for a period of about 4 to 5 hours. The components of the composition were then allowed to polymerize at 37° C., 5% CO2 for approximately 30 minutes immediately before assay setup. For stimulator studies, HUVEC (P3-P5) were harvested at about 70% cell confluence. About 50 μl of cells at 4×10^5/ml in 0.1% FBS/EBM-2 medium supplemented with or without the angiogenesis stimulators were seeded onto 96-well plates containing the pre-solidified (i.e., polymerized) modified reconstituted basement membrane composition (inventive) or a standard Matrigel® matrix (BD Growth Factor Reduced Matrigel® Matrix). The assembled assays were allowed to incubate in a 37° C. incubator with 5% CO2 for approximately 16 to 18 hours. Compounds were dissolved in DMF or water according to manufacturer's instructions.
At the end of each assay, assay medium was removed and plates were washed once with HBSS. 50 μl Calcein AM at 8 μg/ml in HBSS was added to each well and plates were incubated in a 37° C./5% CO2 incubator for 35 minutes followed by washing once in HBSS. Images were acquired with a 2× objective lens on an automated Gen-1 Cell-based Screening System (Universal Imaging Corporation™). Total tube length of each well was measured using a revised (from previous) MetaMorph® Journal. Excel data was imported and analyzed using BD Gentest MPM/ADMET Software Program from BD Biosciences Discovery Labware.
Inhibitor studies were performed as generally described in Example 4, except that for these studies, an inhibitor was included in the assay, in addition to a known stimulator. Data was obtained on the modified matrix (inventive). […] Stimulators, bFGF or S1P, were added to HUVECs at 20 ng/ml and 1 μM, respectively. Suramin of indicated concentrations was added to HUVEC in bFGF or S1P prior to adding the mixtures to each well. Each data point represents the mean+/−standard deviation (n=4).
With reference now to FIG. 5, the effects of inhibitors (SU5402 and Suramin) on HUVEC tube formation induced by stimulators (bFGF and S1P) is shown. Data was obtained on the modified matrix (inventive). Stimulators, bFGF or S1P, were added to HUVECs in EBM-2 containing 0.1% FBS at a final concentration of 20 ng/ml and 1 μM, respectively. Suramin at 15 μM (in medium) or SU5402 at 25 μM (in 0.1% DMF) were added to HUVECs in 0.1% FBS, or bFGF, or S1P, prior to adding the mixtures to the wells. […] Each bar represents the mean+/−standard deviation (n=4).

HUVEC tube formation [2] = experiment: Endothelial cell tube formation assay, stimulator studies on modified matrix; assay type: cell-based, human; conditions: modified matrix (inventive), total tube length, n=4
Protocol: as §1
Known stimulators were chosen to evaluate the performance of an inventive basement membrane composition vs. a prior basement membrane composition. The chosen stimulators were bFGF and spinosine-1-phosphate (S1P). […]
At the end of each assay, assay medium was removed and plates were washed once with HBSS. […] Total tube length of each well was measured using a revised (from previous) MetaMorph® Journal. Excel data was imported and analyzed using BD Gentest MPM/ADMET Software Program from BD Biosciences Discovery Labware. […]

Cc1c[nH]c(/C=C2\C(=O)Nc3ccccc32)c1CCC(=O)O [SU5402]
Effect on S1P induced HUVEC tube formation (HUVEC tube formation [1]; SU5402 at 25 μM (in 0.1% DMF), modified matrix, FIG. 5): partially inhibited | Effect on HUVEC tube formation stimulated by bFGF (HUVEC tube formation [1]; SU5402 at 25 μM (in 0.1% DMF), bFGF 20 ng/ml, modified matrix, FIG. 5): completely inhibited

bFGF: known angiogenesis stimulator; fibroblast growth factor (basic FGF)
EC50 in inducing HUVEC tube formation (HUVEC tube formation [2]): 1.5 ng/mL

CCCCCCCCCCCCC/C=C/[C@@H](O)[C@@H](N)COP(=O)(O)O [S1P, sphinosine-1-phosphate]
EC50 (HUVEC tube formation [2]; read-out: EC50 in inducing HUVEC tube formation): 0.319 µM

Cc1ccc(C(=O)Nc2ccc(S(=O)(=O)O)c3cc(S(=O)(=O)O)cc(S(=O)(=O)O)c23)cc1NC(=O)c1cccc(NC(=O)Nc2cccc(C(=O)Nc3cc(C(=O)Nc4ccc(S(=O)(=O)O)c5cc(S(=O)(=O)O)cc(S(=O)(=O)O)c45)ccc3C)c2)c1 [Suramin]
IC50 (HUVEC tube formation [1]; read-out: IC50 of inhibition of tube formation stimulated by S1P): 10.6 µM | IC50 (HUVEC tube formation [1]; read-out: IC50 of inhibition of tube formation stimulated by bFGF): 7.3 µM | Effect on S1P induced HUVEC tube formation (HUVEC tube formation [1]; Suramin at 15 μM (in medium), modified matrix, FIG. 5): inhibited | Effect on bFGF induced HUVEC tube formation (HUVEC tube formation [1]; Suramin at 15 μM (in medium), bFGF 20 ng/ml, modified matrix, FIG. 5): inhibited
